Where two headings read alike, the source gives them in different places.
Legend:
[1] = Pharmacokinetic parameters in rats (i.v. and p.o. dosing, plasma LC-MS/MS); assay type: in vivo, male Wistar rats; settings: rat; for half-life / Cmax / Tmax / bioavailability / Vd: male, Wistar, plasma
Protocol: In this example the pharmacokinetic parameters of Compound 1 of the invention are compared to those of a close analogue of the prior art, i.e. 1,3-dihydro-1-[2-hydroxy-5-(trifluoromethyl)phenyl]-5-(trifluoromethyl)-2H-Benzimidazol-2-one (i.e. NS1619 described WO 01/54711) herein designated the Reference Compound.
The blood samples were centrifuged at 1.300 g at 4° C. for 25 minutes and the resulting plasma samples were stored at <−15° C. pending analysis.
The compounds were dosed as clear solutions in phosphate buffer/Tween 80 (90:10) in a concentration of 3 mg/ml.
Aliquots of samples, calibrants and QC's (100 μl) were pipetted into 1.5 ml eppendorf tubes. To each tube (except matrix blank) was added 300 μl acetonitrile with internal standards. Matrix blank was added 300 μl acetonitrile without internal standard.
The tubes were shaken on a whirlimixer and then centrifuged for 25 minutes at 16.000 g at 5° C. to precipitate proteins.
An aliquot (200 μl) of the supernatant was transferred to another 1.5 ml eppendorf tube and evaporated to dryness under a gentle stream of nitrogen at 40° C. Then the samples were reconstituted in […] (initial composition).
Incorporating the data from the rat plasma analyses, the pharmacokinetic parameters were calculated using WinNonLin Professional Edition version 2.0.

[2] = Stability in solution (water, 0.1M HCl, 0.1M NaOH, 60° C., HPLC); assay type: physicochemical
Protocol: In this example the stability of Compound 1 of the invention are compared to those of a close analogue of the prior art, i.e. 1,3-dihydro-1-[2-hydroxy-5-(trifluoromethyl)phenyl]-5-(trifluoromethyl)-2H-Benzimidazol-2-one (i.e. NS1619 described in WO 01/54771) herein designated the Reference Compound.
The stability is determined in neutral (H2O), in basic (0.1M NaOH) and in acidic solution (0.1M HCl).
50 ml of water was added to 27 mg of the reference compound. The compound was only partly dissolved. The suspension was stored at 60° C. and after 24 hours 25 ml of methanol was added in order to completely dissolve reference compound. The solution was stored for further 4 hours and then analysed by HPLC (t=28 hours).
50 ml of 0.1M hydrochloric acid was added to 27 mg of the reference compound. The compound was only partly dissolved. The suspension was stored at 60° C. and after 48 hours 25 ml of methanol was added in order to completely dissolve he reference compound. The solution was stored for further 4. hours and then arialysed by HPLC (t=52 hours).
50 ml of 0.1M sodium hydroxide was added to 24 mg of the reference compound. The compound was completely dissolved. The solution was stored at 60° C. and analysed by HPLC after 2 hours (t=2 hours).
(§1) 50 ml of water was added to 25 mg of Compound 1. The compound was only partly dissolved. The suspension was stored at 60° C., and after 48 hours, 25 ml of acetonitrile was added in order to completely dissolve Compound 1. The solution was stored for further 24 hours and then analysed by HPLC (t=72 hours).
as §1, with “of 0.1M hydrochloric acid” for “of water”, “to 27” for “to 25”, “was only-partly” for “was only partly”
50 ml of 0.1M sodium hydroxide was added to 26 mg of Compound 1. The compound was completely dissolved. The solution was stored at 60° C. and analysed by HPLC after 72 hours (t=72 hours).

[3] = molecular target: T1, large conductance calcium-activated potassium (BKCa) channels (Cavia porcellus, UniProt A0A286XP95); settings: guinea pig airways, via activation of BKCa channels; cited from earlier work
T1 construct: sensory fibers innervating the guinea pig airways; host or cells: guinea pig airway sensory nerve fibers (native tissue)
T1 sequence (A0A286XP95 1-1133): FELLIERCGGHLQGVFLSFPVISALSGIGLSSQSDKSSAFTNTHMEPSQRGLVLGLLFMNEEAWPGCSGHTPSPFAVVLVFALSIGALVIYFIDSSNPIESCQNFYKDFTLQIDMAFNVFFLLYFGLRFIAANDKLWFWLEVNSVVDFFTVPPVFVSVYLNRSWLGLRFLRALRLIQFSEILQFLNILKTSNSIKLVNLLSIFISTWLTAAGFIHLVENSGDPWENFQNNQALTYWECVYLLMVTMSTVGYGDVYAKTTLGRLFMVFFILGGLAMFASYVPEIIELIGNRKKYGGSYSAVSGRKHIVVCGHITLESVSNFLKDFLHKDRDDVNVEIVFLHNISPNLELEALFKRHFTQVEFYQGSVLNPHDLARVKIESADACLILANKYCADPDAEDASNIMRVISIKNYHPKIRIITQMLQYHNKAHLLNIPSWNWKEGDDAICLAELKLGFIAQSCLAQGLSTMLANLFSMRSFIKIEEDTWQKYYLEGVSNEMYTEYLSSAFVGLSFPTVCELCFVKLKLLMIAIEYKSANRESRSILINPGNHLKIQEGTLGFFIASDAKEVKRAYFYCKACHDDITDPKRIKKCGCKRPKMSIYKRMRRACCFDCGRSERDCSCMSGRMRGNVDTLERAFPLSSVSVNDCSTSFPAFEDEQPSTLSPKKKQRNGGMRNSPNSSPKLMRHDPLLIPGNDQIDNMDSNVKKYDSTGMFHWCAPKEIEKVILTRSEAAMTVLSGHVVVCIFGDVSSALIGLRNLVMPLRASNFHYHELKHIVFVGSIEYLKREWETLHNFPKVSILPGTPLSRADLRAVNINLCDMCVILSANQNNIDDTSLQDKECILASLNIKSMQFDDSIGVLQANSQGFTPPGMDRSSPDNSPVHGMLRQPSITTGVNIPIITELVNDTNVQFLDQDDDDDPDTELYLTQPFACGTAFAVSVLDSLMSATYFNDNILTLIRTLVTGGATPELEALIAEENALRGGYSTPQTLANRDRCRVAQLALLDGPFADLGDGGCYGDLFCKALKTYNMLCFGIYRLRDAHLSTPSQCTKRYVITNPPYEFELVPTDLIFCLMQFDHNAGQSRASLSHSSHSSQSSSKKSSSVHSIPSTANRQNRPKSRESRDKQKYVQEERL

[4] = iv, i.v. 3 mg/kg, time-points 5 min–5 h, read-out: T1/2 (i.v.) (converted)
[5] = po, p.o. 30 mg/kg, i.v. 3 mg/kg
[6] = po, p.o. 30 mg/kg, time-points 3–24 h (Ref. Cpd.), 2–24 h (Cpd. 1), read-out: T1/2 (p.o.) (converted)

half-life [1, 4] [h]	Cmax ([1]; po, p.o. 30 mg/kg) [ng/mL]	Tmax ([1]; po, p.o. 30 mg/kg) [h]	bioavailability [1, 5] [%]	half-life [1, 6] [h]	Vd [1] [L/kg]	Time after which Cmax after p.o. administration is reached ([1]; p.o.) [h]	Area% (UV 225 nm) of the Test Substance ([2]; HCl (0.1M), 60° C., Initial) [%]	Area% (UV 225 nm) of the Test Substance ([2]; NaOH (0.1M), 60° C., Initial) [%]	Area% (UV 225 nm) of the Test Substance ([2]; Water, 60° C., Initial) [%]	SMILES	further results
1.7	10000	3	145	2.5	1.1	3	98.4	98.4	98.4	O=c1[nH]c2cc(C(F)(F)F)ccc2n1-c1cc(C(F)(F)F)ccc1O [Reference Compound, 1,3-dihydro-1-[2-hydroxy-5-(trifluoromethyl)phenyl]-5-(trifluoromethyl)-2H-Benzimidazol-2-one]	Area% (UV 225 nm) of the Test Substance ([2]; HCl (0.1M), 60° C., t = 52 hours): 98.4%; Area% (UV 225 nm) of the Test Substance ([2]; NaOH (0.1M), 60° C., t = 2 hours): 0.0%; Area% (UV 225 nm) of the Test Substance ([2]; Water, 60° C., t = 28 hours): 96.7%; Stability in 0.1 M NaOH (in words) ([2]; dissolved in 0.1 M NaOH): degrades instantly; Stability in solution (in words) ([2]; neutral, acidic and basic solution, 60° C.): unstable in neutral to basic solutions; Effect on activity of myelinated and non-myelinated airway sensory fibers [3]: inhibits the activity
0.8	4200	0.5	97	3.2	1.9	0.5	99.7	99.7	99.7	O=c1[nH]c2cc(Cl)ccc2n1-c1cc(Cl)ccc1O [Compound 1, 5-Chloro-1-(5-chloro-2-hydroxy-phenyl)-1,3-dihydro-benzimidazole-2-one]	Absorption compared to the reference compound ([1]; p.o.): faster absorption; Half-life after p.o. administration compared to the reference compound ([1]; p.o.): slightly longer; Area% (UV 225 nm) of the Test Substance ([2]; HCl (0.1M), 60° C., t = 72 hours): 99.6%; Area% (UV 225 nm) of the Test Substance ([2]; NaOH (0.1M), 60° C., t = 72 hours): 99.4%; Area% (UV 225 nm) of the Test Substance ([2]; Water, 60° C., t = 72 hours): 99.6%

Reference: patent US7244756B2, “Benzimidazol-2-one derivatives and their use” (Poseidon Pharmaceuticals A/S, priority 2002, dated 2007)
